25 compounds from patent publication US9346798B2, “Dihydrobenzoxazine and tetrahydroquinoxaline sodium channel inhibitors” (AMGEN INC., priority 2012, dated 2016) can be followed below.

Holding throughout (assay type): cell-based
Series [1] has as its target T1, Nav 1.7 (Homo sapiens (Human), UniProt Q15858). The series can be described thus: Nav 1.7 in vitro PX assay, PatchXpress whole cell voltage clamp. The settings on record: HEK 293 cells stably transfected with human Nav1.7; partially inactivated state (20 to 50% inactivation). In short, it runs like this:
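Partially inactivated channels (20–50% inactivation at holding potential) were probed on automated patch clamp in stably transfected HEK293 cells, stepping to −10 mV for 20 msec every 10 s (0.1 Hz).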

The target of series [2] is T1, Nav 1.7. Description: Nav 1.7 in vitro assay, IonWorks Quattro (IWQ) population patch-clamp. The settings on record: HEK 293 cells stably transfected with Nav 1.7; 26th pulse to -20 mV. (In general: In patch-clamp work, channel activity is measured electrically.)
The next series concerns the target Nav 1.5 (Homo sapiens (Human), UniProt Q14524). Description: Nav 1.5 in vitro assay, IonWorks Quattro (IWQ) population patch-clamp. As to conditions: HEK 293 cells stably transfected with Nav 1.5; 26th pulse to -20 mV.

T1 sequence (Q15858 whole entry): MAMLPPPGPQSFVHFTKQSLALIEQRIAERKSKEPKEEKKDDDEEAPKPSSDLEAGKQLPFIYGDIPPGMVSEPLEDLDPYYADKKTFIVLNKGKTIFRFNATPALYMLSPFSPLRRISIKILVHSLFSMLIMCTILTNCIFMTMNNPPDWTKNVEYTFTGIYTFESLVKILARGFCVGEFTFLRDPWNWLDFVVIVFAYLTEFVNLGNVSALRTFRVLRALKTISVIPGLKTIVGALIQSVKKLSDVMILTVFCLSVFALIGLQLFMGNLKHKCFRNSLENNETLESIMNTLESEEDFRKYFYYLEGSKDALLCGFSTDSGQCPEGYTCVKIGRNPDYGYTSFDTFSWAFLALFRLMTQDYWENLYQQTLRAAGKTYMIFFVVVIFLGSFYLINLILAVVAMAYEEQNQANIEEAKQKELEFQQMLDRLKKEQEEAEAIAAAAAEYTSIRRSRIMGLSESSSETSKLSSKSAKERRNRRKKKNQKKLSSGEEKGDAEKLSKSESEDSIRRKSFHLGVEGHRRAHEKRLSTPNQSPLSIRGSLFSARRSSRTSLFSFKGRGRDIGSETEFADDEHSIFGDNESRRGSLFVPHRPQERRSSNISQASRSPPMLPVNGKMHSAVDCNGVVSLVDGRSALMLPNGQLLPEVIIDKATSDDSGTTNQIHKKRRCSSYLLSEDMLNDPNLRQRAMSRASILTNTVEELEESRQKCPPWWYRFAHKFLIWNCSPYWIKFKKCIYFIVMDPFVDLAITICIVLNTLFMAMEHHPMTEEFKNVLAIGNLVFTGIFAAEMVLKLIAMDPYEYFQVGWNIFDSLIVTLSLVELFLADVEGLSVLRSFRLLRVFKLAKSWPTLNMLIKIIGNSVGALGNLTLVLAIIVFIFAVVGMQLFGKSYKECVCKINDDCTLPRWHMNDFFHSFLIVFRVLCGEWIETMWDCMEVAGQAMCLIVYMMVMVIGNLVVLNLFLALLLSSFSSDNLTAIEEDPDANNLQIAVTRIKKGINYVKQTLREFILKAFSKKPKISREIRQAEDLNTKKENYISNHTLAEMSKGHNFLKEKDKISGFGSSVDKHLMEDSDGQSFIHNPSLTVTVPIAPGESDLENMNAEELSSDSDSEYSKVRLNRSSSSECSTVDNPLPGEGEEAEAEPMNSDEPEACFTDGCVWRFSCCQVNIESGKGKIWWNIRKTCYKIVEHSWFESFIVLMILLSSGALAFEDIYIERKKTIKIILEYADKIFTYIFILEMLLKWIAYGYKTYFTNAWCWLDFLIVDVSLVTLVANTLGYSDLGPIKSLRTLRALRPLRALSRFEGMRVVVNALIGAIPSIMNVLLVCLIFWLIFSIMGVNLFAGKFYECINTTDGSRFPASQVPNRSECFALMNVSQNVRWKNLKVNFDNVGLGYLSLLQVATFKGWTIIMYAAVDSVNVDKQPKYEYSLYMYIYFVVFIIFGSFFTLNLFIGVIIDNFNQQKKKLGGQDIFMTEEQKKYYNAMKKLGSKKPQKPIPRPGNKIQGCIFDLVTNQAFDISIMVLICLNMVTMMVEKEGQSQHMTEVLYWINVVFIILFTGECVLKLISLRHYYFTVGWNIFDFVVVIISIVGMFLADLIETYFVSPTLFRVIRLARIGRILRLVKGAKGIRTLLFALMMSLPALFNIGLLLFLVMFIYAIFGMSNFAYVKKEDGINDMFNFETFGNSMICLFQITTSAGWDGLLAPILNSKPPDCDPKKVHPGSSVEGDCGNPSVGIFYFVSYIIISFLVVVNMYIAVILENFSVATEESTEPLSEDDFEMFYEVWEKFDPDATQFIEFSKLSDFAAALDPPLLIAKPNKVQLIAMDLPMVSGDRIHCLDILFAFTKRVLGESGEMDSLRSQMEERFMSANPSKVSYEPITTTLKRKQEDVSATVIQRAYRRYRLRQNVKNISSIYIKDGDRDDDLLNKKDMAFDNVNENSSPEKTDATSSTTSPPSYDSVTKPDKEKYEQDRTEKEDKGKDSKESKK
Nav 1.5, sequence (Q14524 whole entry): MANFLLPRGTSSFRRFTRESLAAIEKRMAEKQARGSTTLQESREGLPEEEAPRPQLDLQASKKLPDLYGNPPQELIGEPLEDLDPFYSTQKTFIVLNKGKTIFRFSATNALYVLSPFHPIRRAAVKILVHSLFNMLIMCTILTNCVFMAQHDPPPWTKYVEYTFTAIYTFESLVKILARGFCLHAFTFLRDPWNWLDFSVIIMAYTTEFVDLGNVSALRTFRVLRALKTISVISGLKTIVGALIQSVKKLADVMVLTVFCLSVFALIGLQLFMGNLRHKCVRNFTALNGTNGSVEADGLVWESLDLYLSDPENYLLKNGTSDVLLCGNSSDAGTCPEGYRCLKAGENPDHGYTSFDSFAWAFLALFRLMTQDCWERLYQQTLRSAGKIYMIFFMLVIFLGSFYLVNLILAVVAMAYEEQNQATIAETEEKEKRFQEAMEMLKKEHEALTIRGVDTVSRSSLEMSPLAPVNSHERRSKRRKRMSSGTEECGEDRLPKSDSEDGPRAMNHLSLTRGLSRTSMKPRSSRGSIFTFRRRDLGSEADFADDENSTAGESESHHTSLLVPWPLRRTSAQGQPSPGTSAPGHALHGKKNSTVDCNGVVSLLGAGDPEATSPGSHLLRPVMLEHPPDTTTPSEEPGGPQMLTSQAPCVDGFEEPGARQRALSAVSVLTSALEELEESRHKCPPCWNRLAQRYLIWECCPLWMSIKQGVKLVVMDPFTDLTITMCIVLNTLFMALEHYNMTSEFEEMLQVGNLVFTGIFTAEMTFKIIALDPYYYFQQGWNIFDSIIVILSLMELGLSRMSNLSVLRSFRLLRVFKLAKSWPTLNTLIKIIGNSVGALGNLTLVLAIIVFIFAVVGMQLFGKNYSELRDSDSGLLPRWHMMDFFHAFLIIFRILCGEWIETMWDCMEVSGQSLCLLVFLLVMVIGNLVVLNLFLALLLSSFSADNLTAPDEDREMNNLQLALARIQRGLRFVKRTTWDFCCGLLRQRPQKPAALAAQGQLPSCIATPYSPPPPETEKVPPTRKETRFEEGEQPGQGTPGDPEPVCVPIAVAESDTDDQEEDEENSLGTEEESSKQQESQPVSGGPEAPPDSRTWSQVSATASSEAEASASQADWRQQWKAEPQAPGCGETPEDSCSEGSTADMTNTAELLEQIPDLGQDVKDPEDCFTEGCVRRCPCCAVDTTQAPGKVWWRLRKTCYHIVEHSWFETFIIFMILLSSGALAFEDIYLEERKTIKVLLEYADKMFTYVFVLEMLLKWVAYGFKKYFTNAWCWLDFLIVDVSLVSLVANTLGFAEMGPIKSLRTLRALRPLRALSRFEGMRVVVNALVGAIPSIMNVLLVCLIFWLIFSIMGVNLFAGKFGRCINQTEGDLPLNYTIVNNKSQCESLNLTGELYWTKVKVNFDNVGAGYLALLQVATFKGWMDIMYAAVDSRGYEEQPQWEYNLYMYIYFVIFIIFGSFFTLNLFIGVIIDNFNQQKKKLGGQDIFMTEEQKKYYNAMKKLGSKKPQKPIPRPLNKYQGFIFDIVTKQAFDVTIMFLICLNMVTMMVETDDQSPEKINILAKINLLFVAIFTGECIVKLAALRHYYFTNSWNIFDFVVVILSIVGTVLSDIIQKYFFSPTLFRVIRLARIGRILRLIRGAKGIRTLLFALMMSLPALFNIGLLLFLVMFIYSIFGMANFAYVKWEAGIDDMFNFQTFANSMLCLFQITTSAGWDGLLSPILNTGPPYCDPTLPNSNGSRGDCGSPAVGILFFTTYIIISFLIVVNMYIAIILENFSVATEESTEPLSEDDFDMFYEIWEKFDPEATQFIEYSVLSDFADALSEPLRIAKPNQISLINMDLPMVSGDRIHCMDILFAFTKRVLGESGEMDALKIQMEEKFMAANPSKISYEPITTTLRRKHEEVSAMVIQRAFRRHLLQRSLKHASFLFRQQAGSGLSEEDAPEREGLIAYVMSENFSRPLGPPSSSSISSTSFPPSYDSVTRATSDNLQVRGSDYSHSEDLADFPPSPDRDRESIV

Turning to `N#CCc1cccc(N2CCOc3cc(S(=O)(=O)Nc4nccs4)ccc32)c1` [Example 174, 4-(3-(Cyanomethyl)Phenyl)-N-(Thiazol-2-Yl)-3,4-Dihydro-2H-Benzo[B][1,4]Oxazine-7-Sulfonamide 2,2,2-Trifluoroacetate], the IC50 against Nav 1.7 [1] was found to be 822 nM; on Nav 1.7 [2], 211 nM; against Nav 1.5, 2010 nM.
In the case of `O=S(=O)(Nc1cc(Cl)ncn1)c1ccc2c(c1)OCCN2c1ccc(C(F)(F)F)cc1Cl` [Example 9, 4-(2-Chloro-4-(Trifluoromethyl)Phenyl)-N-(6-Chloropyrimidin-4-Yl)-3,4-Dihydro-2H-Benzo[B][1,4]Oxazine-7-Sulfonamide], the IC50 was 6320 nM on Nav 1.7 [1], 876 nM at Nav 1.7 [2] and > 10000 nM on Nav 1.5.
For `O=S(=O)(Nc1ncccn1)c1ccc2c(c1)OCCN2c1ccc(C(F)(F)F)cc1C1=CCNCC1` [Example 86, N-(Pyrimidin-2-Yl)-4-(2-(1,2,3,6-Tetrahydropyridin-4-Yl)-4-(Trifluoromethyl)Phenyl)-3,4-Dihydro-2H-Benzo[B][1,4]Oxazine-7-Sulfonamide], in that order: 851 nM, 320 nM and 2260 nM.
The corresponding values for `O=S(=O)(Nc1nccs1)c1ccc2c(c1)OCCN2c1ccccc1C1CCOCC1` [Example 149, 4-(2-(Tetrahydro-2H-Pyran-4-Yl)Phenyl)-N-(Thiazol-2-Yl)-3,4-Dihydro-2H-Benzo[B][1,4]Oxazine-7-Sulfonamide] are 2550 nM, 198 nM and > 10000 nM.
The corresponding values for `O=S(=O)(Nc1nccs1)c1ccc2c(c1)OCCN2c1ccc(Cl)cc1` [Example 40, 4-(4-Chlorophenyl)-N-(Thiazol-2-Yl)-3,4-Dihydro-2H-Benzo[B][1,4]Oxazine-7-Sulfonamide] are 4320 nM, 713 nM and > 10000 nM.
`O=S(=O)(Nc1nccs1)c1ccc2c(c1)OCCN2c1ccc(C(F)(F)F)cn1` [Example 183, N-(Thiazol-2-Yl)-4-(5-(Trifluoromethyl)Pyridin-2-Yl)-3,4-Dihydro-2H-Benzo[B][1,4]Oxazine-7-Sulfonamide]: the figures for the IC50 at Nav 1.7 [1], against Nav 1.7 [2] and at Nav 1.5 were 3320 nM, 177 nM and > 10000 nM, respectively.
For `O=S(=O)(Nc1nccs1)c1ccc2c(c1)OCCN2c1ccc(Cl)c(Cl)c1` [Example 74, 4-(3,4-Dichlorophenyl)-N-(Thiazol-2-Yl)-3,4-Dihydro-2H-Benzo[B][1,4]Oxazine-7-Sulfonamide 2,2,2-Trifluoroacetate], in that order: 4070 nM, 5240 nM and 6080 nM.
The corresponding values for `COc1ccc(N2CCOc3cc(S(=O)(=O)Nc4nccs4)ccc32)cc1C#N` [Example 118, 4-(3-Cyano-4-methoxyphenyl)-N-(thiazol-2-yl)-3,4-dihydro-2H-benzo[b][1,4]oxazine-7-sulfonamide] are 18100 nM, 660 nM and > 10000 nM.
For the compound `[N-]=[N+]=Nc1ccc(N2CCOc3cc(S(=O)(=O)Nc4nccs4)ccc32)c(Br)c1` [Example 64, 4-(4-Azido-2-Bromophenyl)-N-(Thiazol-2-Yl)-3,4-Dihydro-2H-Benzo[B][1,4]Oxazine-7-Sulfonamide 2,2,2-Trifluoroacetate], the IC50 was 1070 nM at Nav 1.7 [1], 418 nM at Nav 1.7 [2] and > 10000 nM against Nav 1.5.
For `O=S(=O)(Nc1nccs1)c1ccc2c(c1)OCCN2c1ccccc1Cl` [Example 46, 4-(2-Chlorophenyl)-N-(Thiazol-2-Yl)-3,4-Dihydro-2H-Benzo[B][1,4]Oxazine-7-Sulfonamide], in that order: 1080 nM, 165 nM and > 10000 nM.
The corresponding values for `O=S(=O)(Nc1ncns1)c1ccc2c(c1)OCCN2c1ccc(C(F)(F)F)cc1Br` [Example 1, 4-(2-Bromo-4-(Trifluoromethyl)Phenyl)-N-(1,2,4-Thiadiazol-5-Yl)-3,4-Dihydro-2H-Benzo[B][1,4]Oxazine-7-Sulfonamide] are 58.9 nM, 11.3 nM and > 10000 nM.
For `O=S(=O)(Nc1ncns1)c1ccc2c(c1)OCCN2c1ccc(C(F)(F)F)cc1C1=CCNCC1` [Example 7, 4-(2-(1,2,3,6-Tetrahydropyridin-4-Yl)-4-(Trifluoromethyl)Phenyl)-N-(1,2,4-Thiadiazol-5-Yl)-3,4-Dihydro-2H-Benzo[B][1,4]Oxazine-7-Sulfonamide], in that order: 23.7 nM, 4.4 nM and 349 nM.
For `Cc1ccc(Cl)cc1N1CCOc2cc(S(=O)(=O)Nc3nccs3)ccc21` [Example 178, 4-(5-Chloro-2-Methylphenyl)-N-(Thiazol-2-Yl)-3,4-Dihydro-2H-Benzo[B][1,4]Oxazine-7-Sulfonamide 2,2,2-Trifluoroacetate], the figures for the IC50 on Nav 1.7 [1], against Nav 1.7 [2] and against Nav 1.5 were 678 nM, 129 nM and 5600 nM, respectively.
The corresponding values for `O=S(=O)(Nc1nccs1)c1ccc2c(c1)OCCN2c1ccc(Cl)c(C(F)(F)F)c1` [Example 125, 4-(4-Chloro-3-(trifluoromethyl)phenyl)-N-(thiazol-2-yl)-3,4-dihydro-2H-benzo[b][1,4]oxazine-7-sulfonamide] are 4040 nM, 571 nM and 6550 nM.
The corresponding values for `CN1CCN(c2ccc(C(F)(F)F)cc2Cl)c2ccc(S(=O)(=O)Nc3ncns3)cc21` [Example 19, 1-(2-Chloro-4-(Trifluoromethyl)Phenyl)-4-Methyl-N-(1,2,4-Thiadiazol-5-Yl)-1,2,3,4-Tetrahydroquinoxaline-6-Sulfonamide] are 4890 nM, 1180 nM and > 10000 nM.
For `O=S(=O)(Nc1nccs1)c1ccc2c(c1)OCCN2c1ccc2c(c1)OC(F)(F)O2` [Example 127, 4-(2,2-Difluorobenzo[d][1,3]dioxol-5-yl)-N-(thiazol-2-yl)-3,4-dihydro-2H-benzo[b][1,4]oxazine-7-sulfonamide], in that order: 1320 nM, 475 nM and > 10000 nM.
Regarding `Cn1nccc1-c1cc(C(F)(F)F)ccc1N1CCOc2cc(S(=O)(=O)Nc3ncns3)ccc21` [Example 3, 4-(2-(1-Methyl-1H-Pyrazol-5-Yl)-4-(Trifluoromethyl)Phenyl)-N-(1,2,4-Thiadiazol-5-Yl)-3,4-Dihydro-2H-Benzo[B][1,4]Oxazine-7-Sulfonamide], the figures for the IC50 on Nav 1.7 [1], at Nav 1.7 [2] and against Nav 1.5 were 57.7 nM, 10.8 nM and 1870 nM, respectively.
With `O=S(=O)(Nc1ncns1)c1ccc2c(c1)OCCN2c1ccc(C(F)(F)F)cc1-c1ccncc1` [Example 26, 4-(2-(Pyridin-4-Yl)-4-(Trifluoromethyl)Phenyl)-N-(1,2,4-Thiadiazol-5-Yl)-3,4-Dihydro-2H-Benzo[B][1,4]Oxazine-7-Sulfonamide], the IC50 against Nav 1.7 [1] worked out at 102 nM; against Nav 1.7 [2], 10.5 nM; on Nav 1.5, 306 nM.
The corresponding values for `N#Cc1cc(C(F)(F)F)ccc1N1CCOc2cc(S(=O)(=O)Nc3nccs3)c(F)cc21` [Example 215, 4-(2-Cyano-4-(Trifluoromethyl)Phenyl)-6-Fluoro-N-(Thiazol-2-Yl)-3,4-Dihydro-2H-Benzo[B][1,4]Oxazine-7-Sulfonamide] are 183 nM, 9.86 nM and 203 nM.
`O=S(=O)(Nc1nccs1)c1ccc2c(c1)OCCN2c1ccc(C(F)(F)F)cc1C[C@@H](O)CO` (single isomer, unassigned) [Example 209]: the IC50 is 165 nM against Nav 1.7 [1], 12.5 nM against Nav 1.7 [2] and 497 nM at Nav 1.5.
For `O=S(=O)(Nc1ncns1)c1ccc2c(c1)OCCN2c1cccc2ccccc12` [Example 36, 4-(Naphthalen-1-Yl)-N-(1,2,4-Thiadiazol-5-Yl)-3,4-Dihydro-2H-Benzo[B][1,4]Oxazine-7-Sulfonamide], in that order: 145 nM, 31.5 nM and > 10000 nM.
The corresponding values for `O=S(=O)(Nc1nccs1)c1ccc2c(c1)OCCN2c1cccc(C(F)(F)F)c1` [Example 173, N-(Thiazol-2-Yl)-4-(3-(Trifluoromethyl)Phenyl)-3,4-Dihydro-2H-Benzo[B][1,4]Oxazine-7-Sulfonamide 2,2,2-Trifluoroacetate] are 1650 nM, 236 nM and > 10000 nM.
The corresponding values for `O=S(=O)(Nc1ncns1)c1ccc2c(c1)OCCN2c1ccc(C(F)(F)F)cc1Cl` [Example 2, 4-(2-Chloro-4-(Trifluoromethyl)Phenyl)-N-(1,2,4-Thiadiazol-5-Yl)-3,4-Dihydro-2H-Benzo[B][1,4]Oxazine-7-Sulfonamide] are 38.6 nM, 7.83 nM and > 10000 nM.
Take `O=S(=O)(Nc1ncco1)c1ccc2c(c1)OCCN2c1ccc(C(F)(F)F)cc1Cl` [Example 24, 4-(2-Chloro-4-(Trifluoromethyl)Phenyl)-N-(Oxazol-2-Yl)-3,4-Dihydro-2H-Benzo[B][1,4]Oxazine-7-Sulfonamide]: the IC50 was 4270 nM against Nav 1.7 [1], 834 nM at Nav 1.7 [2] and > 10000 nM at Nav 1.5.
The corresponding values for `N#Cc1cc(Cl)ccc1N1CCOc2cc(S(=O)(=O)Nc3nccs3)ccc21` [Example 56, 4-(4-Chloro-2-Cyanophenyl)-N-(Thiazol-2-Yl)-3,4-Dihydro-2H-Benzo[B][1,4]Oxazine-7-Sulfonamide] are 265 nM, 51 nM and 4790 nM.

For orientation: IC50 means the point on the concentration scale where inhibition reaches its midpoint. A high value points to lower potency.
